pIC50: −log10 of the molar value.
System: K98450-129-R-PDC complex spheroid growth, percent test/control
Assay: Anticancer human tumor K98450-129-R-PDC patient-derived colon adenocarcinoma cell line growth inhibition [RAS]
Conditions: for pIC50: curve of first compound; for viability, T/C: stronger effect = lower value; active means viability on the fitted dose curve at most 10% of control; inactive means the rest
Description: RAS pathway inhibitors in Combinations in Complex Spheroids
A high-throughput screen of multi-cell type tumor spheroids was designed to identify active combinations of RAS pathway inhibitors and targeted small molecules. Complex spheroids include a stromal component modeled by human endothelial cells (HUVEC) and fibroblasts modeled by human mesenchymal stem cells (MSCs). The concentration ranges selected for each drug and investigational agent were based upon clinically achievable concentrations if the clinical Cmax of the agent was known.
Compounds. The drugs and investigational agents: abemaciclib (NSC768073), cobimetinib (NSC768068), divarasib (GDC6063, NSC841802), docetaxel (NSC628503), GDC-1971 (RLY-1971, NSC841576), gemcitabine (NSC613327), inavolisib (NSC800729), ipatasertib (NSC767898), KB-0742 (NSC834161), MRTX-1133 (NSC836407), osimertinib (NSC779217), RMC-4630 (NSC839698), RMC-6236 (NSC851965), RMC-6291 (NSC852671), Ro-3306 (NSC812927), sapanisertib (NSC764658), SN-38 (NSC673596), staurosporine (NSC755774), SY5609 (NSC837396), and tovorafenib (DAY101, NSC766906), were obtained from the National Cancer Institute (NCI) Developmental Therapeutics Program Chemical Repository. The FDA-approved anticancer drug set is available from the NCI Developmental Therapeutics Program. […] The stock solutions were prepared in dimethyl sulfoxide (DMSO, Sigma-Aldrich, St. Louis, MO, cat. D2650) at 800-fold the tested concentration and stored at -70 degrees C prior to their use. All drugs and investigational agents were tested over a range starting from a high concentration at or near the clinical Cmax and decreasing in half-log increments. If the clinical Cmax for an agent had not been determined, the highest concentration tested was 10 microM.
Cell Culture. All cells were maintained in an incubator at 37 degrees C and 5% CO2 with 95% humidity. The PDC lines were cultured according to standard operating procedures established by the NCI PDMR. All PDCs were thawed and cultured in Matrigel-coated flasks prepared with a working solution of 1X Ham's F-12 nutrient mix, without supplementation (Invitrogen, Waltham, MA, cat. 11765054), 100 U/mL penicillin-streptomycin (Invitrogen, cat. 15140122), and 2.5% Matrigel (Corning Inc., Corning, NY, cat. 354248) for the first three passages. The 362531-283-R-J2-PDC and 782815-120-R-J1-PDC lines were cultured in 6C/Colon 1B media, which includes advanced DMEM/F-12 (Thermo Fisher Scientific, cat. 12634028), 10 mM HEPES (Thermo Fisher Scientific, cat. 15630080), 1X GlutaMAX supplement (Thermo Fisher Scientific, cat. 35050061), 0.1 mg/mL primocin (InvivoGen, San Diego, CA, cat. ant-pm-2), 10% defined fetal bovine serum, heat inactivated (HyClone Laboratories Inc., Logan, UT, cat. SH30070.03HI), 50% L-WRN conditioned media (ATCC, cat. CRL-3276), 1.25 mM N-Acetyl-L-cysteine (Sigma-Aldrich, cat. A9165), 10 mM nicotinamide (Sigma-Aldrich, cat. N0636), 1X B-27 supplement (Thermo Fisher Scientific, cat. 17504044), 1X N-2 supplement (Thermo Fisher Scientific, cat. 17502048), 50 ng/mL human EGF (Thermo Fisher Scientific, cat. PHG0311), and 10 microM Y-27632 dihydrochloride (Tocris Bioscience, cat. 1254). The K12877-001-R-J1-PDC line was cultured in 6I media, which includes all 6C/Colon 1B media plus 10 ng/mL human FGF-10 (PeproTech, cat. 100-26), 1 ng/mL human FGF-2 (PeproTech, cat. 100-18B), 1 µM prostaglandin E2 (Tocris Bioscience, cat. 2296), […] hydrocortisone (Sigma-Aldrich, cat. H4001), and […] bovine insulin (Sigma-Aldrich, cat. I6634). The K86415-001-R-J1-PDC line was cultured in 6D media, which includes all 6C/Colon 1B media components minus the L-WRN conditioned media. The 485176-168-R4-J1-PDC was cultured in PANC media, which includes all 6C/Colon 1B media plus 100 ng/mL human FGF-10 (PeproTech, cat. 100-26), 500 nM SB-431542 (Selleckchem, cat. S1067), and 10 nM gastrin (Tocris Bioscience, cat. 3006). […]

[1] = second compound 0.0316 µM, first compound 0.0316 µM
[2] = second compound 0.0316 µM, first compound 0.1 µM
[3] = second compound 0.0316 µM, first compound 0.316 µM
[4] = second compound 0.0316 µM, first compound 1 µM
[5] = second compound 0.0316 µM, first compound 3.16 µM
[6] = second compound 0.0316 µM, first compound 10 µM
[7] = second compound 0.1 µM, first compound 0.0316 µM
[8] = second compound 0.1 µM, first compound 0.1 µM
[9] = second compound 0.1 µM, first compound 0.316 µM
[10] = second compound 0.1 µM, first compound 1 µM
[11] = second compound 0.1 µM, first compound 3.16 µM
[12] = second compound 0.1 µM, first compound 10 µM
[13] = second compound 0.316 µM, first compound 0.0316 µM
[14] = second compound 0.316 µM, first compound 0.1 µM
[15] = second compound 0.316 µM, first compound 0.316 µM
[16] = second compound 0.316 µM, first compound 1 µM
[17] = second compound 0.316 µM, first compound 3.16 µM
[18] = second compound 0.316 µM, first compound 10 µM
[19] = second compound 1 µM, first compound 0.0316 µM
[20] = second compound 1 µM, first compound 0.1 µM
[21] = second compound 1 µM, first compound 0.316 µM
[22] = second compound 1 µM, first compound 1 µM
[23] = second compound 1 µM, first compound 3.16 µM
[24] = second compound 1 µM, first compound 10 µM
[25] = second compound 3.16 µM, first compound 0.0316 µM
[26] = second compound 3.16 µM, first compound 0.1 µM
[27] = second compound 3.16 µM, first compound 0.316 µM
[28] = second compound 3.16 µM, first compound 1 µM
[29] = second compound 3.16 µM, first compound 3.16 µM
[30] = second compound 3.16 µM, first compound 10 µM
[31] = second compound 10 µM, first compound 0.0316 µM
[32] = second compound 10 µM, first compound 0.1 µM
[33] = second compound 10 µM, first compound 0.316 µM
[34] = second compound 10 µM, first compound 1 µM
[35] = second compound 10 µM, first compound 3.16 µM
[36] = second compound 10 µM, first compound 10 µM
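Further: spheroids exposed to agents for seven days before the viability readout.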
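Wherever viability, T/C is given: luminescence used as a proxy for viable cell amount.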

CC1(O)CCCC1n1c(=O)c(C(F)F)cc2cnc(NC3CCN(S(C)(=O)=O)CC3)nc21 (stereo unspecified) + C#Cc1c(F)ccc2cc(O)cc(-c3ncc4c(N5CC6CCC(C5)N6)nc(OCC56CCCN5CC(F)C6)nc4c3F)c12
< 5.00: pIC50 (second compound 0.0316 µM) | pIC50 (second compound 0.1 µM) | pIC50 (second compound 0.316 µM) | pIC50 (second compound 1 µM) | pIC50 (second compound 3.16 µM) | pIC50 (second compound 10 µM)
inactive: viability, T/C [1] 105% | viability, T/C [2] 101% | viability, T/C [3] 91.3% | viability, T/C [4] 78.3% | viability, T/C [5] 64.2% | viability, T/C [6] 59.3% | viability, T/C [7] 108% | viability, T/C [8] 101% | viability, T/C [9] 91.7% | viability, T/C [10] 77.8% | viability, T/C [11] 65.8% | viability, T/C [12] 60.5% | viability, T/C [13] 106% | viability, T/C [14] 99.5% | viability, T/C [15] 92.4% | viability, T/C [16] 78.8% | viability, T/C [17] 65.5% | viability, T/C [18] 60.5% | viability, T/C [19] 104% | viability, T/C [20] 103% | viability, T/C [21] 89.3% | viability, T/C [22] 68.8% | viability, T/C [23] 58.8% | viability, T/C [24] 55.3% | viability, T/C [25] 90.9% | viability, T/C [26] 94.2% | viability, T/C [27] 83.5% | viability, T/C [28] 73.7% | viability, T/C [29] 63.8% | viability, T/C [30] 57.3% | viability, T/C [31] 89.8% | viability, T/C [32] 85.6% | viability, T/C [33] 80% | viability, T/C [34] 67.4% | viability, T/C [35] 57.4% | viability, T/C [36] 51%

CCC(CC)c1cc(NC2CCC(N)C2)n2nccc2n1 (stereo unspecified) + C#Cc1c(F)ccc2cc(O)cc(-c3ncc4c(N5CC6CCC(C5)N6)nc(OCC56CCCN5CC(F)C6)nc4c3F)c12
5.24: pIC50 (second compound 1 µM)
5.33: pIC50 (second compound 10 µM)
5.26: pIC50 (second compound 0.1 µM)
5.21: pIC50 (second compound 0.316 µM)
5.27: pIC50 (second compound 3.16 µM)
inactive: viability, T/C [1] 99.8% | viability, T/C [2] 102% | viability, T/C [3] 103% | viability, T/C [4] 106% | viability, T/C [5] 93.7% | viability, T/C [6] 16.3% | viability, T/C [7] 105% | viability, T/C [8] 108% | viability, T/C [9] 102% | viability, T/C [10] 98.3% | viability, T/C [11] 81.7% | viability, T/C [12] 16.9% | viability, T/C [13] 105% | viability, T/C [14] 117% | viability, T/C [15] 108% | viability, T/C [16] 97.7% | viability, T/C [17] 94.8% | viability, T/C [18] 20% | viability, T/C [19] 104% | viability, T/C [20] 99.8% | viability, T/C [21] 99.4% | viability, T/C [22] 101% | viability, T/C [23] 82.4% | viability, T/C [24] 19.1% | viability, T/C [25] 91.7% | viability, T/C [26] 97.1% | viability, T/C [27] 94.9% | viability, T/C [28] 84.7% | viability, T/C [29] 79.1% | viability, T/C [30] 18.9% | viability, T/C [31] 84.2% | viability, T/C [32] 90.2% | viability, T/C [33] 88.2% | viability, T/C [34] 89.4% | viability, T/C [35] 68.5% | viability, T/C [36] 14.1%
5.22: pIC50 (second compound 0.0316 µM)

CCN1CCN(Cc2ccc(Nc3ncc(F)c(-c4cc(F)c5nc(C)n(C(C)C)c5c4)n3)nc2)CC1 + C#Cc1c(F)ccc2cc(O)cc(-c3ncc4c(N5CC6CCC(C5)N6)nc(OCC56CCCN5CC(F)C6)nc4c3F)c12
inactive: viability, T/C (second compound 0.0316 µM, first compound 0.00316 µM) 110% | viability, T/C (second compound 0.0316 µM, first compound 0.01 µM) 105% | viability, T/C [1] 99% | viability, T/C [2] 92.4% | viability, T/C [3] 72.2% | viability, T/C [4] 74.4% | viability, T/C (second compound 0.1 µM, first compound 0.00316 µM) 109% | viability, T/C (second compound 0.1 µM, first compound 0.01 µM) 100% | viability, T/C [7] 98.4% | viability, T/C [8] 86.9% | viability, T/C [9] 74.1% | viability, T/C [10] 70.5% | viability, T/C (second compound 0.316 µM, first compound 0.00316 µM) 104% | viability, T/C (second compound 0.316 µM, first compound 0.01 µM) 106% | viability, T/C [13] 97.6% | viability, T/C [14] 89.6% | viability, T/C [15] 74.5% | viability, T/C [16] 67.4% | viability, T/C (second compound 1 µM, first compound 0.00316 µM) 107% | viability, T/C (second compound 1 µM, first compound 0.01 µM) 99.5% | viability, T/C [19] 90.1% | viability, T/C [20] 82.8% | viability, T/C [21] 66.5% | viability, T/C [22] 59.2% | viability, T/C (second compound 3.16 µM, first compound 0.00316 µM) 90.4% | viability, T/C (second compound 3.16 µM, first compound 0.01 µM) 94.6% | viability, T/C [25] 95.8% | viability, T/C [26] 75.6% | viability, T/C [27] 62.8% | viability, T/C [28] 53.6% | viability, T/C (second compound 10 µM, first compound 0.00316 µM) 85.7% | viability, T/C (second compound 10 µM, first compound 0.01 µM) 89.3% | viability, T/C [31] 81.6% | viability, T/C [32] 69.8% | viability, T/C [33] 46.9% | viability, T/C [34] 31.9%
6.57: pIC50 (second compound 10 µM)
< 6.00: pIC50 (second compound 0.0316 µM) | pIC50 (second compound 0.1 µM) | pIC50 (second compound 0.316 µM) | pIC50 (second compound 1 µM) | pIC50 (second compound 3.16 µM)

From PubChem BioAssay AID2060891 (Molecular Pharmacology Branch, DTP, NCI, 2025)
